Measurements as given in paper PMC5036617 (Toxicological Sciences, 2016).
Like-named read-outs stand apart in the source and are kept apart here.

Key:
[1] = cited from earlier work
[2] = system: HepG2 cells; assay: Cellular ATP content of HepG2 cells in glucose or galactose medium (ATP bioluminescent assay); format: cell-based; conditions: 2 h; for EC50ATPglu/EC50ATPgal: ratio ≥ 2 identifies a mitochondrial liability; for EC50: Homo sapiens, concentration reducing cellular ATP content by 50%
Method: Metabolic switching of cells was performed based on work previously described by ([[…] et al., 2015]). Briefly, 24 h prior to metabolic switch, HepG2 cells were collected by trypsinization and seeded on a collagen-coated flat-bottomed 96-well plate (20 000 cells/50 μl/well) and incubated (37°C, 5% CO2) overnight. […] Flutamide, 2-hydroxyflutamide and bicalutamide stock solutions were prepared in DMSO and diluted further in the appropriate medium. Compounds (50 μl) were then added to each well and cells were incubated for 2 h (37 °C, 5% CO2). All assays used ≤ 0.5% DMSO as a vehicle control. […] LDH content of the cells and supernatant was assessed using a cytotoxicity detection kit according to the manufacturer's instructions. ATP content was assessed using an ATP bioluminescent assay according to the manufacturer's instructions. Briefly, 10 μl of cell lysate or ATP standard curve solutions were added to a white-walled 96-well plate before addition of 40 μl ATP assay mix. Protein content of all wells was then assessed using a BCA assay applied to 10 μl of cell lysate and standards. LDH (490 nm), BCA (570 nm), and ATP assay luminescence were then measured using a plate reader (Varioskan, Thermo Scientific). ATP content readings were normalized to protein content. Experiments were conducted in a minimum of triplicate to ensure the reliability of single values. EC50 data were determined by nonlinear regression analysis using GraphPad Prism 5.0. Normality was assessed using a Shapiro-Wilk statistical test. Statistical significance was determined by an unpaired t-test for parametric data and a Mann-Whitney U test for non-parametric data using StatsDirect 2.7.9. P < .05 was taken as showing a significant difference.

[3] = system: HepG2 cells; assay: Mitochondrial stress test, OCR analysis (Seahorse XFe96); format: cell-based; conditions: vs vehicle control
Method: HepG2 cells were collected by trypsinization and seeded on a collagen-coated XF 96-well cell culture microplate (25 000 cells/100 µl medium/well) and incubated overnight in glucose medium (37 °C, 5% CO2). All assays used ≤ 0.5% DMSO as a vehicle control. Cells were incubated for 1 h (37°C, 0% CO2) before culture medium was replaced by 175 µl of unbuffered Seahorse XF Base medium supplemented with glucose (25 mM), L-glutamine (2 mM), sodium pyruvate (1 mM), pre-warmed to 37 °C (pH 7.4). Prior to measurement of OCR, the Seahorse XFe96 instrument gently mixed the assay medium in each well for 10 min to enable the oxygen partial pressure to reach equilibrium. […] There were 9 OCR measurement cycles following compound injection and each measurement cycle consisted of a 3 min mix and 3 min measure. […] After stress test compound injections there were 3 measurement cycles before the injection of the next stress test compound. This enabled the calculation of basal respiration (OCR prior to oligomycin injection—non-mitochondrial OCR), proton leak (OCR after oligomycin injection—non-mitochondrial OCR), ATP-linked OCR (basal respiration—proton leak—non-mitochondrial OCR), maximal respiration (first injection after FCCP injection—non-mitochondrial OCR) and spare respiratory capacity (maximal respiration—basal respiration) (Figure 2).  FIG. 2 Representative control mitochondrial stress test trace. Mitochondrial stress test assays consisted of a series of compound injections into the cell culture microplate. […] Remaining injections consisted of oligomycin (ATP synthase inhibitor), FCCP (OXPHOS uncoupler), and rotenone/antimycin A (complex I and III inhibitors, respectively) with each followed by 3 measurement cycles. This series of manipulations enabled the calculation of parameters: basal, ATP-linked, maximum, and non-mitochondrial OCR, as well as proton leak. Each measurement cycle was a total of 6 min. Following completion of OCR assays, medium was removed from all wells and 20 µl of somatic cell ATP releasing agent was added to each well before shaking for 1 min and transfer of 10 µl of lysate to a 96-well plate and performance of a BCA assay according to the manufacturer’s instructions. Protein content per well was used to normalize OCR.

## Nc1ccc([N+](=O)[O-])c(C(F)(F)F)c1 [3-trifluoromethyl-4-nitroaniline]
[1]; plasma, metabolite after single 250 mg dose of flutamide, ref Schulz et al., 1988, read-out: maximum plasma concentration (Cmax)
  Cmax: 1310 nM

## C[C@](O)(CS(=O)(=O)c1ccc(F)cc1)C(=O)Nc1ccc(C#N)c(C(F)(F)F)c1 [(R)-bicalutamide]
[1]; single 50 mg dose, ref Cockshott, 2004
  half-life: 140 h
[1]; single 50 mg dose, ref Cockshott, 2004, read-out: Cmax
  Cmax: 1700 nM

## CC(O)(CS(=O)(=O)c1ccc(F)cc1)C(=O)Nc1ccc(C#N)c(C(F)(F)F)c1 (stereo not shown) [Bicalutamide]
[2]
  EC50ATPglu/EC50ATPgal: 1.44 (0.22)
[2]; listed as bicalutamide
  EC50ATPglu/EC50ATPgal: ≤ 2
[2]; up to 300 µM
  decrease in ATP content in galactose medium compared with glucose medium: this was not the case for bicalutamide
[2]; galactose medium, read-out: EC50ATP (μM) Galactose
  EC50: 103 µM
[2]; glucose medium, read-out: EC50ATP (μM) Glucose
  EC50: 148 µM
[3]; glucose medium, 7.8–500 µM
  basal respiration: only caused a significant decrease in maximal respiration
  maximal respiration: significant decrease
[3]; up to 500 µM
  ATP-linked OCR as a percentage of maximal respiration: not observed
  proton leak as a percentage of maximal respiration: not observed
  spare respiratory capacity as a percentage of maximal respiration: not observed
